In article PMC5404542, “In Vitro and In Vivo Antifungal Profile of a Novel and Long-Acting Inhaled Azole, PC945, on Aspergillus fumigatus Infection” (Antimicrobial Agents and Chemotherapy, 2017):
Values after ≈ are worked out from the molar mass of the structure shown.

What was measured:
[1] = test system: Candida glabrata (ATCC 36583, R363); assay: MIC, CLSI; type: cell-based; details: Nakaseomyces glabratus, ATCC36583; 2 strains, CLSI, mean isolate MIC; read-out: MIC (the MIC given is the MIC50)
[2] = test system: Candida albicans (20240.047, ATCC 10231); assay: MIC, CLSI; type: cell-based; details: ATCC10231, 2 strains, CLSI, mean isolate MIC, read-out: MIC (the MIC given is the MIC50)
AfCYP51A = AfCYP51A (Aspergillus fumigatus, UniProt Q4WNT5); assay: CYP51 reconstitution assay (sterol 14α-demethylase activity); type: biochemical; design: made in house; host or cells: Escherichia coli (membrane fraction)
Sequence of AfCYP51A (Q4WNT5 whole entry): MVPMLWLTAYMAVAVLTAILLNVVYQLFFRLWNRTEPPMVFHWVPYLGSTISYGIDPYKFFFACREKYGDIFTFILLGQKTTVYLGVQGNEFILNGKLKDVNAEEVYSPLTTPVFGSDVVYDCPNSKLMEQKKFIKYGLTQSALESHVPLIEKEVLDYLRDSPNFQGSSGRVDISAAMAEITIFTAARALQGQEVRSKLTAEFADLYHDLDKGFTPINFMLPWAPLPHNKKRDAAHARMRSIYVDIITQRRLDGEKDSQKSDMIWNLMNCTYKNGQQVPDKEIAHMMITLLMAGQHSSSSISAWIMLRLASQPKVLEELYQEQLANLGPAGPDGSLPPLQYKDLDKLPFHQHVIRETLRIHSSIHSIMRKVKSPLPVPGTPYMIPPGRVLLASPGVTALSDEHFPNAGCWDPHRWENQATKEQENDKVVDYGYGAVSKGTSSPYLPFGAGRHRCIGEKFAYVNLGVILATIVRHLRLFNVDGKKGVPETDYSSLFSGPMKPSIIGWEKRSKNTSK
Description: A CYP51 reconstitution assay system was used to determine 50% inhibitory concentrations (IC50s) ([37]). Test agent was added to a mixture of 0.5 μM CYP51, 1 μM A. fumigatus cytochrome P450 reductase isoenzyme 1 (AfCPR1), 50 μM eburicol, 4% (wt/vol) 2-hydroxypropyl-β-cyclodextrin, 0.4 mg ml^−1 isocitrate dehydrogenase, 25 mM trisodium isocitrate, 50 mM NaCl, 5 mM MgCl2, and 40 mM 3-(N-morpholino) propanesulfonic acid (MOPS) (pH ∼7.2). The mixtures were then incubated at 37°C for 10 min prior to initiation with 4 mM β-NADPHNa4 followed by shaking for 20 min at 37°C. Sterol metabolites were recovered by extraction with ethyl acetate followed by derivatization with 0.1 ml N,O-bis(trimethylsilyl)trifluoroacetamide:trimethylchlorosilane (99:1) and 0.3 ml anhydrous pyridine prior to analysis by gas chromatography-mass spectrometry.

Plasma protein binding = type: in vitro ADME
[3] = Systemic exposure after topical/intranasal treatment; type: in vivo; details: data not shown
[4] = test system: Candida krusei (ATCC 6258); assay: MIC, CLSI; type: cell-based; details: Pichia kudriavzevii, ATCC6258; 1 strain, CLSI; read-out: MIC
[5] = Precipitation in EUCAST medium; type: physicochemical

| Compound | MIC50 [1] [µg/mL] | MIC50 [2] [µg/mL] | IC50 (AfCYP51A) [nM] | Ki (AfCYP51A) [nM] | plasma protein binding (Plasma protein binding) | systemic exposure [3] | MIC [4] [µg/mL] | concentration at which compound precipitated in EUCAST medium [5] [ng/mL] |
| --- | --- | --- | --- | --- | --- | --- | --- | --- |
| CC[C@@H]([C@H](C)O)n1ncn(-c2ccc(N3CCN(c4ccc(OC[C@@H]5CO[C@@](Cn6cncn6)(c6ccc(F)cc6F)C5)cc4)CC3)cc2)c1=O [Posaconazole, posaconazole] | 0.5 (≈ 0.713 µM) | 0.081 (≈ 0.116 µM) | 160 | < 1 |  |  |  |  |
| Cc1cc(N2CCN(c3ccc(C(=O)Nc4ccc(F)cc4)cc3)CC2)ccc1OC[C@@H]1CO[C@@](Cn2cncn2)(c2ccc(F)cc2F)C1 [PC945, 4-[4-(4-{[(3R,5R)-5-(2,4-difluorophenyl)-5-(1H-1,2,4-triazol-1-ylmethyl)oxolan-3-yl]methoxy}-3-methylphenyl)piperazin-1-yl]-N-(4-fluorophenyl)benzamide] | 0.5 (≈ 0.732 µM) | 0.081 (≈ 0.119 µM) | 230 | < 1 | high levels of plasma protein binding | very low systemic exposure | 0.125 (≈ 0.183 µM) | > 4000 |
